Patent US20250082766A1, “TREATMENT OF BRAIN TUMORS BY TARGETING THE CHOLESTEROL PATHWAY IN ASTROCYES” (Ramot at Tel-Aviv University Ltd., priority 2022, published 2025)

How the values were obtained:
[1] = test system: glioma; settings: OXPHOS-targeting drugs; cited from earlier work
[2] = test system: GL261 and CT-2A glioma cells; experiment: Cell viability assay (Annexin V/DAPI FACS) of glioma cells; format: cell-based, mouse; settings: GL261 or CT-2A in LPDS-media; cholesterol 250 ng/ml for 5 days; FIGS. 5F-G
Procedure: FIGS. 5A-N illustrate that astrocyte-derived cholesterol supports glioma survival. (FIGS. 5A-D) Real-time changes in the ECAR (FIGS. 5A-B) and oxygen consumption rate (OCR) (FIGS. 5C-D) of GL261 glioma cells, cultured in media supplemented with full serum (FCS, fetal calf serum) or lipoprotein-deprived serum (LPDS, Lipoprotein-deficient serum) for 18 hours and measured using Seahorse. Oligo, oligomycin; FCCP, carbonyl cyanide4-(trifluoromethoxy) phenylhydrazone; R/A, rotenone plus antimycin A; 2-DG, 2-deoxy-d-glucose. Glycolysis, glycolytic capacity and glycolytic reserve were extracted from the ECAR reading, and basal respiration, adenosine triphosphate (ATP) production, Maximal respiration, and spare respiratory capacity were determined based on OCR. Data are representative of two independent experiments (n=6 technical replicates per experiment). (FIG. 5E) Percentage of cell death of GL261 and CT-2A glioma cells, or primary astrocytes, cultured in FCS or LPDS for 5 days; as determined by Annexin-V assay (n=5 independent experiments). […] Representative flow cytometry plots of Annexin-V/DAPI staining from each group are shown in FIG. 5F and quantification analyses of cholesterol rescue are in FIG. 5G (n=5 biologically independent experiments). (FIGS. 5H-K) Representative images and quantification of LDLR expression (Immunoblot, FIGS. 5H-I) and cell death via FACS analysis of Annexin V/DAPI staining (FIGS. 5J-K) in response to endogenous LXR agonists (24-OHC) or Mock (DMSO) treatment in GL261 and CT-2A cells (n=3 biologically independent experiments). […] (FIGS. 5L-M) Representative flow cytometry plots of murine GL261 and CT-2A glioma cells co-cultured for 5 days with primary mouse astrocytes are shown in FIG. 5L and quantification analyses in FIG. 5M (n=4 biologically independent experiments). (FIG. 5N) quantification analyses of human U87EGFRvIII (U87) glioma cells co-cultured with human primary astrocytes for 5 days (n=3 biologically independent experiments). […]

[3] = test system: reactive astrocytes / GL261 glioma; experiment: Reactive astrocyte depletion with GCV in GL261-bearing WT or Gfap-TK mice; format: in vivo, mouse
Excerpt: FIGS. 1A-I illustrate that depletion of Tumor-associated astrocytes (TAAs) regress glioblastoma progression. (FIG. 1A) Representative immunofluorescence images of reactive TAAs stained for GFAP (cyan) crowning a glioblastoma (GBM) tumor (GFP^+-GL261, white), and nuclei (DAPI, yellow). The right image is an expansion of the area marked by the white box. (n=3 biologically independent experiments, 3 mice per group). Scale bar, 1000 m; (FIGS. 1B-I) WT (wild type), or Gfap-TK GBM-bearing mice were treated daily with Ganciclovir (GCV, 25 mg/kg) from day 10 until the experimental endpoint as illustrated in FIG. 1B. (FIG. 1C) representative immunofluorescence images of reactive astrocyte depletion at the tumor margins (GFP^+-GL261, white), as detected by GFAP staining (cyan). Scale bars, 500 m. Data are representative of three independent experiments with n=4 mice/group. (FIGS. 1D-G) Tumor size in GCV-treated WT or Gfap-TK GBM-bearing littermates. (FIGS. 1D-E) Representative images of GL261-derived bioluminescence from each group are shown in FIG. 1D and quantification of tumor size in FIG. 1E. Data are representative of five independent experiments with n=6 mice/group. (FIGS. 1F-G) Representative images from each group, 17 days after GL261 cell implantation, are shown in FIG. 1F with quantification of tumor size in FIG. 1G, tumor (GL261 cells in purple), and nuclei (DAPI; white). Scale bar, 1000 m. Data are representative of three independent experiments with n=5 mice/group. (FIG. 1H) Bodyweight assessment of mice from FIGS. 1D-E. (FIG. 1I) Kaplan-Meier curves assessing overall survival. Data are representative of three independent experiments with n=8 mice/group. Data in FIGS. 1D-H are shown as mean±s.e.m. P values were determined by two-way ANOVA (FIGS. 1D-H) or Log rank (Mantel-Cox) test (FIG. 1I). *P<0.05, **P<0.01, ***P<0.001, n.s. not significant.
For intracranial mouse glioma, mice were anesthetized, positioned in a Stereotaxic Alignment System, and injected with 1.5×10^4 GL261 or CT-2A cells in 2 μl of DMEM. Injections were made to the right frontal lobe, approximately 2.5 mm lateral and 0.1 mm caudal from bregma at a depth of 3 mm. In-vivo bioluminescence imaging, following XenoLight D-luciferin Potassium Salt administration (150 mg/kg) i.p. administration, was determined using IVIS Spectrum system (PerkinElmer). Ganciclovir (GCV, Cymevene, Roche #SAP-10051872; 25 mg/kg), Diphtheria-toxin (DT, Sigma-Aldrich, #D0564; 1100 ng/mice), or vehicle control (PBS) were administered daily following tumor establishment (day 10), as previously described (Mayo, L., et al. Nat Med (2014) 20: 1147-1156). CD8^+ T cell depletion was performed using an anti-CD8 monoclonal antibody ([…], Bioxcell) or an isotype control monoclonal antibody (2A3, Bioxcell), as previously described (Takenaka, M. C. et al. Control of tumor-associated macrophages and T cells in glioblastoma via AHR and CD39. Nat Neurosci 22, 729-740 (2019)). GBM-bearing mice were intraperitoneally injected (0.1 mg/mouse) with an anti-CD8 or an isotype control mAbs, 1 day before, and 7 days after, GCV administration. CD8 T-cell depletion was validated by FACS analysis using a Sony SH800 FACS instrument (Sony Biotechnology). Data analysis was performed using FlowJo v10 (TreeStar, USA). The following reagents were used for analysis: anti-CD45 (1:100; 30-F11, Biolegend, #103106), anti-CD3[…] (1:50; 145-2C11, Biolegend #100335), and anti-CD8a (1:100; 53-6.7, Biolegend, #100765).
To study the role of TAAs in glioblastoma, the course of tumor progression was analyzed in mice expressing the herpes simplex virus thymidine kinase (HSVtk) under the Gfap promotor (Gfap-TK), in which Ganciclovir (GCV) administration can deplete reactive astrocytes. For this purpose, GFP^+GL261-Luc (GL261) was intracranially injected […], into syngeneic C57Bl/6 WT or into Gfap-TK littermates. […]

Cc1nc(-c2nc(-c3ccc(OC(F)(F)F)cc3)no2)nn1Cc1cccc(N2CCC(S(C)(=O)=O)CC2)c1 [IACS-010759]
glioma proliferation and cell death [1]: inhibit glioma proliferation and induce cell death

CC(C)CCC[C@@H](C)[C@H]1CC[C@H]2[C@@H]3CC=C4C[C@@H](O)CC[C@]4(C)[C@H]3CC[C@]12C [cholesterol]
rescue of glioma viability from lipoprotein-bound cholesterol deprivation [2]: overcame the deleterious effects of lipoprotein-bound cholesterol deprivation on glioma viability

CN(C)C(=N)N=C(N)N [metformin]
glioma proliferation and cell death [1]: inhibit glioma proliferation and induce cell death

Nc1nc(O)c2ncn(COC(CO)CO)c2n1 [GCV, Ganciclovir]
reactive astrocytes around the tumors (GFAP staining) ([3]; GBM-bearing Gfap-TK mice (not in WT mice), GCV 25 mg/kg daily from day 10, FIG. 1C): specific ablation of reactive astrocytes
weight loss ([3]; GCV-treated GL261-bearing Gfap-TK mice vs WT littermates, FIG. 1H): significantly attenuates the weight loss
survival ([3]; GCV-treated GL261-bearing Gfap-TK mice vs WT littermates, FIG. 1I): dramatically improves their survival
accumulation of IBA-1+ TAMs in the TME ([3]; GCV-treated GL261-bearing Gfap-TK vs WT mice, day 17, FIGS. 3D-E): significantly reduces
tumor size (bioluminescence, histology) ([3]; GL261-bearing Gfap-TK mice, GCV 25 mg/kg daily from day 10, FIGS. 1D-G): dramatic tumor regression
GBM progression (tumor size, bioluminescence) ([3]; GL261-bearing WT mice, GCV 25 mg/kg daily vs vehicle, FIG. 7A): neither GCV treatment of WT mice nor genetic insertion of the HSVtk into Gfap-TK mice (without GCV treatment) affected GBM progression
survival ([3]; GL261-bearing WT mice, GCV vs vehicle, FIG. 7E): had no effect on survival
